In US20150024008A1, “Methods and Compositions Involving Induced Senescent Cells for Cancer Treatment” (THE UNIVERSITY OF CHICAGO, priority 2011, published 2015):

Assays:
[1] = test system: B16SIY murine melanoma tumors; assay: B16SIY tumor growth after veliparib and IR; format: in vivo, mouse; details: veliparib 0.5 mg twice daily oral + 6 or 12 Gy IR vs IR alone; C57/B6 mice
Description: (§1) Mouse melanoma cell line B16SIY (5×10^5 cells) were implanted subcutaneously in the flank of 6 to 8-wk-old C57/B6 mice. Tumors were allowed to grow until they reached a volume of about 100 to 150 mm^3 (approximately 2 wk) before treatment with PARP inhibitor veliparib (vrib, (R)-2-(2-methylpyrrolidin-2-yl)-1H-benzo[d]imidazole-4-carboxamide, ABT-888) and/or IR (Dunn 2006). Mice received 0.5 mg of veliparib in water twice daily by oral gavage as indicated. CD8^+, CD4^+, NK cells were depleted by anti-CD8 or anti-CD4 or anti-NK1.1, respectively, 1 d before IR. Depletion was confirmed by checking peripheral blood samples by flow cytometry. Macrophages were depleted with liposomal clodronate starting 1 d before IR. Depletion was confirmed by checking splenocyte and tumor samples by flow cytometry (Zhang 2008). Samples were collected 2 to 7 days later, and analyzed by flow cytometry using a BD LSRII flow cytometer. Blood samples were gated in forward scatter and side scatter on smaller cells for CD8, CD4 analysis, larger cells for NK and macrophage, and the percentage of different cell types were determined (Lugade 2008, Zhang 2010).

[2] = test system: murine pancreatic cancer cell line p1048; assay: SA-βGal staining and cytokine expression in p1048 cells; format: cell-based, mouse
Description: (§2) Slides were deparaffinized in xylene and hydrated with alcohol before being placed in 0.3% H2O2/methanol blocking solution to quench endogenous peroxidase activity followed by subsequent antigen unmasking in EDTA buffer. […] Reactions were developed with 3,3′-diaminobenzidine chromogen or Vulcan Red, respectively, and counterstained with hematoxylin. Negative controls were obtained by using isotype-matched primary antibody IgG. The SA-βGal assay was performed using the Senescence Beta-galactosidase Staining Kit (Cell Signaling) (Dunn 2006). All images were captured using Zeiss Axiovert 200M and Zeiss Axiocam color digital camera controlled by OpenLab software with a 20× objective. All primers sequence and running protocols for RT-PCR can be found in reference Table 2 (Lugade 2008, Zhang 2008).

[3] = test system: B16SIY murine melanoma tumors; assay: H/E and SA-βGal staining of treated B16 tumors; format: in vivo, mouse; details: veliparib+IR vs IR or veliparib alone; 7 days after IR
Description: as §1
Slides were deparaffinized in xylene and hydrated with alcohol before being placed in 0.3% H2O2/methanol blocking solution to quench endogenous peroxidase activity followed by subsequent antigen unmasking in EDTA buffer. […]

[4] = test system: B16SIY murine melanoma cells; assay: DNA damage foci (γH2AX, 53BP1) and SA-βGal senescence in B16SIY cells in vitro; format: cell-based, mouse; details: with IR
Description: as §2
(§3) B16SIY cells were maintained in a full medium supplemented with 10% FCS. The cells were pretreated with 10 μm veliparib then exposed to 6 or 12 Gy x-ray or IR alone (Gammacell 1000; MDS Nordion, Kanata, Ontario, Canada), then cocultured with immature BM-DC in a transwell system. 3 days later BM-DC were collected and analyzed by FACS for cell surface maturation marker and intracellular cytokines. These BM-DC were used to stimulate sorted CD4+ cells (Lugade 2008, Zhang 2008).

[5] = test system: MCF7 Tet-On GFP-IBD human breast cancer cell line; assay: GFP-53BP1 IRIF persistence, senescence and growth in MCF7 Tet-On GFP-IBD cells; format: cell-based
Description: To examine the effect of glucose metabolism on IRIF persistence in living cells, we exploited our previously described IRIF reporter consisting of GFP fused to the 53BP1 IRIF binding domain, expressed under tetracycline-inducible control. MCF7^Tet-On GFP-IBD cells were seeded at 3×10^5 per Fluorodish (World Precision Instruments, Inc.) in high-glucose (4.5 g/L) DMEM (Invitrogen) media supplemented with 10% Tet system-approved fetal bovine serum (Clontech) and 1 μg/mL doxycycline (Sigma). Next day media was exchanged for either high-glucose (4.5 g/L) or low-glucose (1 g/L) DMEM with 10% FBS and 1 μg/mL doxycycline. […] Cells were fixed at 3 h and 24 h for IRIF imaging and at day 5 for SA-βGal staining. Images were captured on Zeiss Axiovert 200M and a Hammatsu Orca ER FireWire digital monochrome (IRIF) or Zeiss Axiocam color digital camera (SA-βGal staining) controlled by OpenLab software.
To investigate what step of glycolysis is critical for improvement of DNA repair we used set of well established glycolysis inhibitors including glucose transporter Glut1 inhibitor, HXKi, GAPHi, PKi, LDHi. […] Given that elevated glycolysis predispose tumor cells for therapeutic resistance similar experiment has been performed on IR resistant PANC02 mouse pancreatic and U87 human glioma cell lines.

B16 melanoma cells = assay: RT-qPCR of SASP cytokines in B16 cells treated in vitro; format: cell-based, mouse; details: veliparib+IR
Description: as §2, §3

B16 tumors = assay: RT-qPCR and immunohistochemistry of treated B16 tumors; format: in vivo, mouse
Description: as §1, §2

[6] = test system: TUBO murine mammary tumor cells; assay: Senescence, SASP expression and ATP release of TUBO cells in low or high glucose media; format: cell-based, mouse
Description: as §2

[7] = veliparib+IR, 7 days after irradiation

In the case of `C[C@]1(c2nc3c(C(N)=O)cccc3[nH]2)CCCN1` [veliparib, (R)-2-(2-methylpyrrolidin-2-yl)-1H-benzo[d]imidazole-4-carboxamide], the tumor regrowth [1] was “markedly delayed tumor regrowth”, the “accelerated senescence and SASP” value ([2]; veliparib and 12 Gy) was “entering accelerated senescence and displaying an altered SASP” and the SA-βGal staining [2, 7] was “induced SA-βGal staining”. The cytokine expression [2, 7] was “upregulation of multiple cytokines”, the “enlarged cells and SA-βGal staining in tumors” value [3] was “greater numbers of enlarged cells and more intense SA-βGal staining” and the “DNA damage foci resolution (γH2AX, p53BP1)” value ([4]; 24 h) was “delayed DNA damage foci resolution”. For the same molecule, the “accelerated senescence (cell morphology, SA-βGal)” value ([4]; day 7) was “induced accelerated senescence”, the “effect on cisplatin-induced foci persistence, senescence and growth suppression” value ([5]; combined with cisplatin) was “enhances this effect” and the accelerated senescence ([5]; combined with irradiation) was “induces accelerated senescence”. The “persistence of GFP-53BP1 foci (IRIF)” value ([5]; combined with irradiation) was “enhance radiation induced persistence of GFP-53BP1 foci”, the “foci persistence and senescence in presence of estrogen” value ([5]; irradiated cells, estrogen) was “overcomes the activity of estrogen” and the growth ([5]; veliparib+6 Gy vs veliparib or radiation alone) was “causes growth suppression”. For the same molecule, the “chemokine expression (CCL2, CCL3, CCL5, CXCL9, CXCL10, CXCL11)” value (B16 melanoma cells) was “upregulated”, the IFNβ transcription (B16 melanoma cells; 7 days after 6 Gy) was “increased transcription of IFNβ” and the IL-6 transcription (B16 melanoma cells; 7 days after 6 Gy) was “decreased IL-6”. For the same molecule, the “SASP gene expression in tumors (IFNβ, IFNγ, CCL2, CCL5, CXCL9, CXCL10, CXCL11)” value (B16 tumors; veliparib+IR) was “increased expression of SASP genes”, the “immunohistochemistry of enlarged senescent tumor cells” value (B16 tumors; veliparib+IR) was “distinct strong staining of IFNβ, CCL2, CXCL9 and CXCL10” and the “p21 and p16 expression in tumors” value (B16 tumors; veliparib+IR vs IR alone, normalized to GAPDH) was “significantly increased expression of p21 and p16”. The cell survival ([6]; IR and veliparib+IR, low glucose medium) was “more cells survived”, the “senescent cell morphology and SA-βGal expression” value ([6]; veliparib and 12 Gy, data not shown) was “fail to display either the characteristic cell morphology or SA-βGal expression” and the “IFNβ and CCL5 expression kinetics” value ([6]; veliparib+IR, high glucose media) was “only showed low level IFNβ and CCL5 at day 7”. For the same molecule, the SA-βGal staining ([6]; veliparib+IR, low glucose media vs high glucose) was “More TUBO cells displayed enhanced senescence-associated β-galactosidase staining”, the “extracellular ATP release” value ([6]; veliparib+IR, low glucose media, higher density) was “higher ATP was detected” and the “IFNβ and CXCL11 expression kinetics” value ([6]; veliparib+IR, low glucose medium) was “started at day 5 through day 10”. The cell apoptosis ([6]; veliparib+IR, low vs high glucose medium) was “no increased cell apoptosis”.
